Assay results from ChEMBL document CHEMBL1201862, “PubChem BioAssay data set” (2004).
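Each compound was tested at five concentrations against cells in 96-well plates for 48 hours. GI50 is the concentration that inhibits growth by half.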 Calls of active or inactive are those of the source. No stated cut-off is given here; in the data, active = GI50 up to about 1.1 µM and inactive = higher.

Columns and labels:
Test in all cases: NCI-60 cell line screen, 48 h
[1] = system: 786-0
[2] = system: A498
[3] = system: A549
[4] = system: ACHN
[5] = system: BT-549
[6] = system: CAKI-1
[7] = system: CCRF-CEM
[8] = system: COLO 205
[9] = system: DU-145
[10] = system: EKVX
[11] = system: HCC 2998
[12] = system: HCT-116
[13] = system: HCT-15
[14] = system: HL-60
[15] = system: HOP-62
[16] = system: HOP-92
[17] = system: HT-29
[18] = system: Hs-578T
[19] = system: IGROV-1
[20] = system: K562
[21] = system: KM12
[22] = system: LOX IMVI
[23] = system: M14
[24] = system: MCF7
[25] = system: MDA-MB-231
[26] = system: MDA-MB-435
[27] = system: MDA-N
[28] = system: MOLT-4
[29] = system: NCI-H226
[30] = system: NCI-H23
[31] = system: NCI-H460
[32] = system: NCI-H522
[33] = system: NCI/ADR-RES
[34] = system: OVCAR-3
[35] = system: OVCAR-5
[36] = system: OVCAR-8
[37] = system: PC-3
[38] = system: RPMI-8226
[39] = system: RXF 393
[40] = system: SF-268
[41] = system: SF-295
[42] = system: SF-539
[43] = system: SK-MEL-28
[44] = system: SK-MEL-2
[45] = system: SK-MEL-5
[46] = system: SK-OV-3
[47] = system: SN12C
[48] = system: SNB-19
[49] = system: SNB-75
[50] = system: SR
[51] = system: SW-620
[52] = system: T47D
[53] = system: TK-10
[54] = system: U-251
[55] = system: UACC-257
[56] = system: UACC-62
[57] = system: UO-31
[58] = system: Malme-3M
[59] = system: OVCAR-4

**Q.** How did the GI50 [1] turn out when `C=C(C)C1CCC2(C)C1CCC1(C)C2CCC2C3(C)C4OC(OC4=O)C(C)(C)C3CCC21C` (stereo unspecified) was run?
**A.** Its GI50 is > 100 µM (inactive).

**Q.** And the GI50 [2]?
**A.** The GI50 was > 100 µM (inactive).

**Q.** And the GI50 [3]?
**A.** Its GI50 is > 100 µM (inactive).

**Q.** And the GI50 [4]?
**A.** Its GI50 is > 100 µM (inactive).

**Q.** And the GI50 [5]?
**A.** The GI50 was > 100 µM (inactive).

**Q.** And the GI50 [6]?
**A.** Its GI50 is 92 µM (inactive).

**Q.** And the GI50 [7]?
**A.** The GI50 was 80.4 µM (inactive).

**Q.** What about the GI50 [8] of the same compound?
**A.** Its GI50 is 48.3 µM (inactive).

**Q.** What about the GI50 [9] of the same compound?
**A.** Its GI50 is > 100 µM (inactive).

**Q.** What about the GI50 [10] of the same compound?
**A.** The GI50 was > 100 µM (inactive).

**Q.** What about the GI50 [11] of the same compound?
**A.** The GI50 was > 100 µM (inactive).

**Q.** What about the GI50 [12] of the same compound?
**A.** The GI50 was > 100 µM (inactive).

**Q.** And the GI50 [13]?
**A.** Its GI50 is > 100 µM.

**Q.** And the GI50 [14]?
**A.** The GI50 was 47.3 µM (inactive).

**Q.** What about the GI50 [15] of the same compound?
**A.** Its GI50 is > 100 µM (inactive).

**Q.** What about the GI50 [16] of the same compound?
**A.** The GI50 was > 100 µM (inactive).

**Q.** And the GI50 [17]?
**A.** Its GI50 is > 100 µM (inactive).

**Q.** What about the GI50 [18] of the same compound?
**A.** The GI50 was > 100 µM (inactive).

**Q.** And the GI50 [19]?
**A.** Its GI50 is > 100 µM (inactive).

**Q.** And the GI50 [20]?
**A.** Its GI50 is 33 µM (inactive).

**Q.** What about the GI50 [21] of the same compound?
**A.** The GI50 was > 100 µM (inactive).

**Q.** What about the GI50 [22] of the same compound?
**A.** The GI50 was > 100 µM (inactive).

**Q.** What about the GI50 [23] of the same compound?
**A.** Its GI50 is > 100 µM (inactive).

**Q.** And the GI50 [24]?
**A.** The GI50 was > 100 µM (inactive).

**Q.** What about the GI50 [25] of the same compound?
**A.** Its GI50 is > 100 µM (inactive).

**Q.** And the GI50 [26]?
**A.** The GI50 was > 100 µM (inactive).

**Q.** And the GI50 [27]?
**A.** The GI50 was > 100 µM (inactive).

**Q.** And the GI50 [28]?
**A.** The GI50 was > 100 µM (inactive).

**Q.** And the GI50 [29]?
**A.** The GI50 was > 100 µM (inactive).

**Q.** And the GI50 [30]?
**A.** The GI50 was > 100 µM (inactive).

**Q.** What about the GI50 [31] of the same compound?
**A.** Its GI50 is > 100 µM (inactive).

**Q.** And the GI50 [32]?
**A.** Its GI50 is 14.6 µM (inactive).

**Q.** And the GI50 [33]?
**A.** The GI50 was > 100 µM (inactive).

**Q.** What about the GI50 [34] of the same compound?
**A.** The GI50 was > 100 µM (inactive).

**Q.** And the GI50 [35]?
**A.** Its GI50 is > 100 µM (inactive).

**Q.** What about the GI50 [36] of the same compound?
**A.** The GI50 was > 100 µM (inactive).

**Q.** What about the GI50 [37] of the same compound?
**A.** Its GI50 is > 100 µM (inactive).

**Q.** What about the GI50 [38] of the same compound?
**A.** The GI50 was > 100 µM (inactive).

**Q.** What about the GI50 [39] of the same compound?
**A.** The GI50 was > 100 µM (inactive).

**Q.** And the GI50 [40]?
**A.** The GI50 was > 100 µM (inactive).

**Q.** What about the GI50 [41] of the same compound?
**A.** Its GI50 is > 100 µM (inactive).

**Q.** What about the GI50 [42] of the same compound?
**A.** The GI50 was > 100 µM (inactive).

**Q.** And the GI50 [43]?
**A.** Its GI50 is > 100 µM (inactive).

**Q.** What about the GI50 [44] of the same compound?
**A.** The GI50 was > 100 µM (inactive).

**Q.** What about the GI50 [45] of the same compound?
**A.** Its GI50 is > 100 µM (inactive).

**Q.** What about the GI50 [46] of the same compound?
**A.** Its GI50 is > 100 µM (inactive).

**Q.** And the GI50 [47]?
**A.** The GI50 was > 100 µM (inactive).

**Q.** What about the GI50 [48] of the same compound?
**A.** The GI50 was > 100 µM (inactive).

**Q.** What about the GI50 [49] of the same compound?
**A.** The GI50 was > 100 µM (inactive).

**Q.** What about the GI50 [50] of the same compound?
**A.** The GI50 was > 100 µM (inactive).

**Q.** And the GI50 [51]?
**A.** Its GI50 is > 100 µM (inactive).

**Q.** What about the GI50 [52] of the same compound?
**A.** The GI50 was 64.6 µM (inactive).

**Q.** What about the GI50 [53] of the same compound?
**A.** Its GI50 is > 100 µM (inactive).

**Q.** What about the GI50 [54] of the same compound?
**A.** Its GI50 is > 100 µM (inactive).

**Q.** And the GI50 [55]?
**A.** The GI50 was > 100 µM (inactive).

**Q.** And the GI50 [56]?
**A.** Its GI50 is > 100 µM (inactive).

**Q.** What about the GI50 [57] of the same compound?
**A.** Its GI50 is > 100 µM (inactive).

**Q.** What does the source list for `CC(C)CSCC1OC(n2cnc3c(N)nccc32)C(O)C1O` (stereo unspecified)?
**A.** GI50 [1]: > 100 µM (inactive); GI50 [2]: > 100 µM (inactive); GI50 [3]: > 100 µM (inactive); GI50 [4]: > 100 µM (inactive); GI50 [5]: > 100 µM (inactive); GI50 [6]: > 100 µM (inactive); GI50 [7]: > 100 µM (inactive); GI50 [8]: > 86.1 µM (inactive); GI50 [9]: > 100 µM (inactive); GI50 [10]: 89.5 µM (inactive); GI50 [11]: 27.9 µM (inactive); GI50 [12]: > 100 µM (inactive); GI50 [13]: > 100 µM; GI50 [14]: > 100 µM (inactive); GI50 [15]: > 100 µM (inactive); GI50 [16]: > 72.9 µM (inactive); GI50 [17]: > 100 µM (inactive); GI50 [18]: > 72.1 µM (inactive); GI50 [19]: > 100 µM (inactive); GI50 [20]: > 75 µM (inactive); GI50 [21]: > 100 µM (inactive); GI50 [22]: > 100 µM (inactive); GI50 [23]: > 100 µM (inactive); GI50 [24]: > 100 µM (inactive); GI50 [25]: > 100 µM (inactive); GI50 [26]: > 100 µM (inactive); GI50 [27]: > 100 µM (inactive); GI50 [28]: > 87.5 µM (inactive); GI50 [58]: > 100 µM (inactive); GI50 [29]: > 57.1 µM (inactive); GI50 [30]: > 100 µM (inactive); GI50 [31]: > 100 µM (inactive); GI50 [32]: 45.8 µM (inactive); GI50 [33]: > 100 µM (inactive); GI50 [34]: > 100 µM (inactive); GI50 [59]: > 100 µM (inactive); GI50 [35]: > 100 µM (inactive); GI50 [36]: > 100 µM (inactive); GI50 [37]: > 100 µM (inactive); GI50 [38]: > 67 µM (inactive); GI50 [39]: > 52 µM (inactive); GI50 [40]: > 100 µM (inactive); GI50 [41]: > 100 µM (inactive); GI50 [42]: > 100 µM (inactive); GI50 [43]: > 100 µM (inactive); GI50 [44]: > 100 µM (inactive); GI50 [45]: 43.8 µM (inactive); GI50 [46]: > 100 µM (inactive); GI50 [47]: > 100 µM (inactive); GI50 [48]: > 100 µM (inactive); GI50 [49]: > 100 µM (inactive); GI50 [50]: > 100 µM (inactive); GI50 [51]: > 100 µM (inactive); GI50 [52]: > 100 µM (inactive); GI50 [53]: > 100 µM (inactive); GI50 [54]: > 100 µM (inactive); GI50 [55]: > 85.3 µM (inactive); GI50 [56]: > 100 µM (inactive); GI50 [57]: > 100 µM (inactive)
